Assay results as given in publication PMC12830207, “Targeting the protein–protein interaction between the CDC37 cochaperone and client kinases by an allosteric RAF dimer breaker” (The Journal of Biological Chemistry, 2025).

Test system: CRAF–CDC37 interaction
Assay: NanoBiT luminescence CDC37–RAF interaction reporter assay, CRAF^SmBiT–CDC37^LgBiT
Type: cell-based, human (HEK293)
Conditions: HEK293, 25 μM braftide, 4 h, 1 μM bortezomib pretreatment 5 h, 10 μM furimazine, 470 to 480 nm
Text: NanoBiT cytomegalovirus MCS BiBiT vector, which contains a BRAF N terminal fused with LgBiT and CRAF N terminal fused with SmBiT, was purchased from Promega. CDC37 LgBiT and CRAF SmBiT was generated using the standard Gibson Assembly (NEB HiFi Assembly) using NanoBiT BiBiT as the vector and following primers: 5′ […] 3′, 5′ […] 3′, and CDC37 LgBiT and BRAF SmBiT was generated using the standard Gibson Assembly using NanoBiT BiBiT as the vector and following primers: 5′ […] 3′, 5′ […] 3′. Primers were designed to introduce H20A, N22A, I23A triple mutation within the CDC37 FLAG tag and for NanoBiT construct CDC37(HNI/A) LgBit and BRAF SmBiT. Primers were designed to introduce the desired substitutions. The forward primer sequence was 5′ gccgcc[…] […]
Twenty-four hours post-transfection, cells were trypsinized, pelleted, resuspended in OptiMEM + 4% fetal bovine serum, and reseeded onto a 96-well plate at 5(10)^4 cells per well and then incubated at 37 °C overnight. […] After treatment, 10 μM furimazine substrate was added to each well, and luminescence readings were taken at 470 to 480 nm using a CLARIOstar plate reader. Statistical significance was determined through a paired t test where indicated, followed by Tukey's honest significant difference post hoc test with corresponding p values (∗p < 0.05, ∗∗p < 0.01, and ∗∗∗p < 0.001). […]

Q: With “GRKKRRQRRRPQ-miniPEG-TRHVNILLFM [Braftide]” as the substance, how does the “NanoBiT luminescence, CRAF^SmBiT–CDC37^LgBiT” value read?
A: reduction in luminescence, reflecting a decrease in the CDC37–RAF interaction
